In US9605004B2, “Chemical compounds” (SYNGENTA LIMITED, priority 2013, dated 2017):

Legend:
[1] = test system: a variety of test species; assay: Post-emergence herbicidal activity (Example 8b, Table 3); format: in vivo; details: application post-emergence, rate 1000 g/ha, evaluated after 13 days, scale 0-5; for Herbicidal damage score, ABUTH: Abutilon theophrasti; for Herbicidal damage score, ALOMY: Alopecurus myosuroides; for Herbicidal damage score, AMARE: Amaranthus retroflexus; for Herbicidal damage score, ECHCG: Echinochloa crus-galli; for Herbicidal damage score, SETFA: Setaria faberi; for Herbicidal damage score, ZEAMX: Zea mays
In short: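 Pot-grown seedlings sprayed 8 days after sowing with active ingredient in acetone/water (50:50) plus 0.5% Tween 20. Glasshouse at 24/16 °C day/night, 14 h light, 65% humidity, watered twice daily. Damage scored after 13 days on a 0–5 scale (5 = total damage, 0 = none).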

[2] = test system: a variety of test species; assay: Pre-emergence herbicidal activity (Example 8a, Table 2); format: in vivo; set-up: key: 0 = no damage to plant, 5 = total damage to plant; details: application pre-emergence, rate 1000 g/ha, evaluated after 13 days
In short: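 Sow in pots of standard soil; after one day under glasshouse conditions, spray compound (acetone/water 50:50 formulation, 0.5% Tween 20, diluted in water). Grow on at 24/16 °C, 14 h light, 65% humidity with twice-daily watering. Assess at 13 days, 0–5 damage scale.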

CC1=C(Cl)C(=O)N(c2cc(C(C)(C)C)[nH]n2)C1O (centres unmarked) [Compound A1]
Herbicidal damage score, ABUTH [1]: 5
Herbicidal damage score, ALOMY [1]: 5
Herbicidal damage score, AMARE [1]: 5
Herbicidal damage score, ECHCG [1]: 5
Herbicidal damage score, SETFA [1]: 5
Herbicidal damage score, ZEAMX [1]: 5
Pre-emergence herbicidal activity, damage score ABUTH [2]: 5
Pre-emergence herbicidal activity, damage score ALOMY [2]: 3
Pre-emergence herbicidal activity, damage score AMARE [2]: 5
Pre-emergence herbicidal activity, damage score ECHCG [2]: 5
Pre-emergence herbicidal activity, damage score SETFA [2]: 5
Pre-emergence herbicidal activity, damage score ZEAMX [2]: 2

CC(C)=CCc1cc(N2C(=O)C(Br)=C(C)C2O)nn1C (centres unmarked) [Compound J3]
Herbicidal damage score, ABUTH [1]: 4
Herbicidal damage score, ALOMY [1]: 1
Herbicidal damage score, AMARE [1]: 2
Herbicidal damage score, ECHCG [1]: 2
Herbicidal damage score, SETFA [1]: 4
Herbicidal damage score, ZEAMX [1]: 0
Pre-emergence herbicidal activity, damage score ABUTH [2]: 0
Pre-emergence herbicidal activity, damage score ALOMY [2]: 0
Pre-emergence herbicidal activity, damage score AMARE [2]: 0
Pre-emergence herbicidal activity, damage score ECHCG [2]: 0
Pre-emergence herbicidal activity, damage score SETFA [2]: 0
Pre-emergence herbicidal activity, damage score ZEAMX [2]: 0

CC1=C(Cl)C(=O)N(c2cc(C#CC(C)(C)C)n(C)n2)C1O (centres unmarked) [Compound B25]
Herbicidal damage score, ABUTH [1]: 3
Herbicidal damage score, ALOMY [1]: 1
Herbicidal damage score, AMARE [1]: 3
Herbicidal damage score, ECHCG [1]: 1
Herbicidal damage score, SETFA [1]: 1
Herbicidal damage score, ZEAMX [1]: 0
Pre-emergence herbicidal activity, damage score ABUTH [2]: 0
Pre-emergence herbicidal activity, damage score ALOMY [2]: 0
Pre-emergence herbicidal activity, damage score AMARE [2]: 2
Pre-emergence herbicidal activity, damage score ECHCG [2]: 0
Pre-emergence herbicidal activity, damage score SETFA [2]: 0
Pre-emergence herbicidal activity, damage score ZEAMX [2]: 0

CC1=C(Br)C(=O)N(c2cc(C(C)(C)C)n(C)n2)C1O (centres unmarked) [Compound J2]
Herbicidal damage score, ABUTH [1]: 5
Herbicidal damage score, ALOMY [1]: 5
Herbicidal damage score, AMARE [1]: 5
Herbicidal damage score, ECHCG [1]: 5
Herbicidal damage score, SETFA [1]: 5
Herbicidal damage score, ZEAMX [1]: 4
Pre-emergence herbicidal activity, damage score ABUTH [2]: 5
Pre-emergence herbicidal activity, damage score ALOMY [2]: 3
Pre-emergence herbicidal activity, damage score AMARE [2]: 5
Pre-emergence herbicidal activity, damage score ECHCG [2]: 5
Pre-emergence herbicidal activity, damage score SETFA [2]: 4
Pre-emergence herbicidal activity, damage score ZEAMX [2]: 2

COC1=C(OC)C(O)N(c2cc3n(n2)CCCC3(C)C)C1=O (centres unmarked) [Compound W2]
Herbicidal damage score, ABUTH [1]: 5
Herbicidal damage score, ALOMY [1]: 5
Herbicidal damage score, AMARE [1]: 5
Herbicidal damage score, ECHCG [1]: 5
Herbicidal damage score, SETFA [1]: 5
Herbicidal damage score, ZEAMX [1]: 5
Pre-emergence herbicidal activity, damage score ABUTH [2]: 5
Pre-emergence herbicidal activity, damage score ALOMY [2]: 4
Pre-emergence herbicidal activity, damage score AMARE [2]: 5
Pre-emergence herbicidal activity, damage score ECHCG [2]: 4
Pre-emergence herbicidal activity, damage score SETFA [2]: 5
Pre-emergence herbicidal activity, damage score ZEAMX [2]: 4

CCC(C)c1cc(N2C(=O)C(Cl)=C(C)C2O)nn1C (centres unmarked) [Compound B33]
Herbicidal damage score, ABUTH [1]: 5
Herbicidal damage score, ALOMY [1]: 5
Herbicidal damage score, AMARE [1]: 5
Herbicidal damage score, ECHCG [1]: 5
Herbicidal damage score, SETFA [1]: 5
Herbicidal damage score, ZEAMX [1]: 5
Pre-emergence herbicidal activity, damage score ABUTH [2]: 5
Pre-emergence herbicidal activity, damage score ALOMY [2]: 4
Pre-emergence herbicidal activity, damage score AMARE [2]: 5
Pre-emergence herbicidal activity, damage score ECHCG [2]: 5
Pre-emergence herbicidal activity, damage score SETFA [2]: 5
Pre-emergence herbicidal activity, damage score ZEAMX [2]: 4

CCC1=C(Br)C(=O)N(c2nn(C)c(C(C)(C)C)c2C#N)C1O (centres unmarked) [Compound L2]
Herbicidal damage score, ABUTH [1]: 5
Herbicidal damage score, ALOMY [1]: 5
Herbicidal damage score, AMARE [1]: 5
Herbicidal damage score, ECHCG [1]: 5
Herbicidal damage score, SETFA [1]: 5
Herbicidal damage score, ZEAMX [1]: 1
Pre-emergence herbicidal activity, damage score ABUTH [2]: 4
Pre-emergence herbicidal activity, damage score ALOMY [2]: 3
Pre-emergence herbicidal activity, damage score AMARE [2]: 3
Pre-emergence herbicidal activity, damage score ECHCG [2]: 4
Pre-emergence herbicidal activity, damage score SETFA [2]: 3
Pre-emergence herbicidal activity, damage score ZEAMX [2]: 0

CC1=C(Cl)C(=O)N(c2cc(I)n(C)n2)C1O (centres unmarked) [Compound B16]
Herbicidal damage score, ZEAMX [1]: 4
Pre-emergence herbicidal activity, damage score ABUTH [2]: 4
Pre-emergence herbicidal activity, damage score ALOMY [2]: 4
Pre-emergence herbicidal activity, damage score ECHCG [2]: 4
Pre-emergence herbicidal activity, damage score ZEAMX [2]: 3

CCn1nc(N2C(=O)C(Cl)=C(C)C2O)cc1C(F)(F)F (centres unmarked) [Compound C6]
Herbicidal damage score, ABUTH [1]: 5
Herbicidal damage score, ALOMY [1]: 5
Herbicidal damage score, AMARE [1]: 5
Herbicidal damage score, ECHCG [1]: 5
Herbicidal damage score, SETFA [1]: 4
Herbicidal damage score, ZEAMX [1]: 3
Pre-emergence herbicidal activity, damage score ABUTH [2]: 5
Pre-emergence herbicidal activity, damage score ALOMY [2]: 4
Pre-emergence herbicidal activity, damage score AMARE [2]: 5
Pre-emergence herbicidal activity, damage score ECHCG [2]: 5
Pre-emergence herbicidal activity, damage score SETFA [2]: 4
Pre-emergence herbicidal activity, damage score ZEAMX [2]: 4

CC1=C(Br)C(=O)N(c2nn(C)c(C(C)(C)C)c2C#N)C1O (centres unmarked) [Compound L1]
Herbicidal damage score, ABUTH [1]: 5
Herbicidal damage score, ALOMY [1]: 5
Herbicidal damage score, AMARE [1]: 5
Herbicidal damage score, ECHCG [1]: 5
Herbicidal damage score, SETFA [1]: 5
Herbicidal damage score, ZEAMX [1]: 3
Pre-emergence herbicidal activity, damage score ABUTH [2]: 5
Pre-emergence herbicidal activity, damage score ALOMY [2]: 4
Pre-emergence herbicidal activity, damage score AMARE [2]: 5
Pre-emergence herbicidal activity, damage score ECHCG [2]: 5
Pre-emergence herbicidal activity, damage score SETFA [2]: 5
Pre-emergence herbicidal activity, damage score ZEAMX [2]: 3

CC1=C(Cl)C(=O)N(c2cc(C(F)(F)C(F)(F)F)[nH]n2)C1O (centres unmarked) [Compound A6]
Herbicidal damage score, ABUTH [1]: 5
Herbicidal damage score, ALOMY [1]: 5
Herbicidal damage score, AMARE [1]: 5
Herbicidal damage score, ECHCG [1]: 5
Herbicidal damage score, SETFA [1]: 4
Herbicidal damage score, ZEAMX [1]: 4
Pre-emergence herbicidal activity, damage score ABUTH [2]: 5
Pre-emergence herbicidal activity, damage score ALOMY [2]: 3
Pre-emergence herbicidal activity, damage score AMARE [2]: 5
Pre-emergence herbicidal activity, damage score ECHCG [2]: 4
Pre-emergence herbicidal activity, damage score SETFA [2]: 4
Pre-emergence herbicidal activity, damage score ZEAMX [2]: 1

CC1=C(Cl)C(=O)N(c2cc(C(C)(C)C)n(C)n2)C1O (centres unmarked) [Compound B2]
Herbicidal damage score, ABUTH [1]: 5
Herbicidal damage score, ALOMY [1]: 5
Herbicidal damage score, AMARE [1]: 5
Herbicidal damage score, ECHCG [1]: 5
Herbicidal damage score, SETFA [1]: 5
Herbicidal damage score, ZEAMX [1]: 5
Pre-emergence herbicidal activity, damage score ABUTH [2]: 5
Pre-emergence herbicidal activity, damage score ALOMY [2]: 4
Pre-emergence herbicidal activity, damage score AMARE [2]: 5
Pre-emergence herbicidal activity, damage score ECHCG [2]: 5
Pre-emergence herbicidal activity, damage score SETFA [2]: 5
Pre-emergence herbicidal activity, damage score ZEAMX [2]: 2
